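1) Cells in 96-well plates. 2) Compound, 48 h, 5 concentrations. 3) Linear interpolation between surrounding doses. 4) Unreached endpoint = highest concentration. GI50: concentration for 50% inhibition of growth. At the TGI there is no net growth.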
Key:
Assay in all cases: growth of human tumour cells (NCI), 48 h
LOX IMVI melanoma = system: LOX IMVI melanoma
SF-539 CNS = system: SF-539 CNS
SF-268 CNS = system: SF-268 CNS
SNB-19 CNS = system: SNB-19 CNS
CAKI-1 renal = system: CAKI-1 renal
SNB-75 CNS = system: SNB-75 CNS
HCT-116 colon = system: HCT-116 colon
HL-60(TB) leukemia = system: HL-60(TB) leukemia
RPMI-8226 leukemia = system: RPMI-8226 leukemia
HT29 colon = system: HT29 colon

`COc1cccc(/C=C/C(=O)c2ccc3cc(OC)ccc3c2)c1` gave a GI50 (LOX IMVI melanoma) of 2.92 µM, a TGI (LOX IMVI melanoma) of 14.5 µM and a GI50 (SF-539 CNS) of 7.95 µM. For the same compound, the TGI (SF-539 CNS) was 16.8 µM, the GI50 (SF-268 CNS) was 15.5 µM and the TGI (SF-268 CNS) was > 50 µM. It also gave a GI50 (SNB-19 CNS) of 14 µM, a TGI (SNB-19 CNS) of 47.3 µM and a GI50 (CAKI-1 renal) of 16.4 µM. For the same compound, the TGI (CAKI-1 renal) was > 50 µM, the GI50 (SNB-75 CNS) was 0.066 µM and the TGI (SNB-75 CNS) was 14.6 µM. For the same compound, the GI50 (HCT-116 colon) was 9.21 µM, the TGI (HCT-116 colon) was 16.2 µM and the GI50 (HL-60(TB) leukemia) was 17.5 µM. For the same compound, the TGI (HL-60(TB) leukemia) was > 50 µM, the GI50 (RPMI-8226 leukemia) was 10.8 µM and the TGI (RPMI-8226 leukemia) was 34.8 µM.
In the case of `CCCCC1=CSC(c2ccccc2)=C(c2ccccc2)S1`, the TGI (LOX IMVI melanoma) is reported as > 100 µM, the TGI (SF-539 CNS) is reported as > 100 µM and the TGI (HT29 colon) is reported as > 100 µM. The TGI (SNB-19 CNS) was > 100 µM, the TGI (SNB-75 CNS) was > 100 µM and the TGI (HCT-116 colon) was > 100 µM. For the same compound, the TGI (RPMI-8226 leukemia) was > 100 µM.
In the case of `COc1ccccc1NC(=O)C1=C(C)NC(C)=C(C(=O)Nc2ccccc2OC)C1c1ccccc1[N+](=O)[O-]`, the TGI (LOX IMVI melanoma) is reported as 33.2 µM, the TGI (SF-539 CNS) is reported as 37 µM and the TGI (HT29 colon) is reported as 37 µM. For the same compound, the TGI (SF-268 CNS) was 50.7 µM, the TGI (SNB-75 CNS) was > 100 µM and the TGI (HCT-116 colon) was > 100 µM. It also gave a TGI (HL-60(TB) leukemia) of 45.3 µM and a TGI (RPMI-8226 leukemia) of 65.6 µM.
Work on `CCOC(=O)CSc1cc(Cl)c(C)cc1S(=O)(=O)/N=C(/N=C/c1ccc([N+](=O)[O-])s1)NNC` yielded a GI50 (LOX IMVI melanoma) of 17.8 µM, a TGI (LOX IMVI melanoma) of 31.6 µM and a GI50 (HT29 colon) of 15 µM. For the same compound, the TGI (HT29 colon) was 28.2 µM, the GI50 (SF-268 CNS) was 29.8 µM and the TGI (SF-268 CNS) was > 100 µM. It also gave a GI50 (SNB-19 CNS) of 22.8 µM, a TGI (SNB-19 CNS) of 80.1 µM and a GI50 (CAKI-1 renal) of 17.6 µM. It also gave a TGI (CAKI-1 renal) of 49.3 µM, a GI50 (HCT-116 colon) of 13.5 µM and a TGI (HCT-116 colon) of 26.3 µM. It also gave a GI50 (HL-60(TB) leukemia) of 21.7 µM, a TGI (HL-60(TB) leukemia) of 53.7 µM and a GI50 (RPMI-8226 leukemia) of 36.7 µM. For the same compound, the TGI (RPMI-8226 leukemia) was > 100 µM.
With `Nc1nnc2c(-c3ccccc3)[nH]nc2n1` the TGI (LOX IMVI melanoma) was > 100 µM, the TGI (SF-539 CNS) was > 100 µM and the TGI (HT29 colon) was > 100 µM. For the same compound, the TGI (SF-268 CNS) was 58.7 µM, the TGI (SNB-19 CNS) was > 100 µM and the TGI (CAKI-1 renal) was > 100 µM. The TGI (HCT-116 colon) was > 100 µM, the TGI (HL-60(TB) leukemia) was > 100 µM and the TGI (RPMI-8226 leukemia) was > 100 µM.
`COc1cc[c]([Sn]([c]2ccc(OC)cc2)([c]2ccc(OC)cc2)[c]2ccc(OC)cc2)cc1` showed a GI50 (LOX IMVI melanoma) of 13.6 µM, a TGI (LOX IMVI melanoma) of 29.4 µM and a GI50 (SF-539 CNS) of 16.8 µM. For the same compound, the TGI (SF-539 CNS) was 48.6 µM, the GI50 (HT29 colon) was 20.3 µM and the TGI (HT29 colon) was > 100 µM. The GI50 (SF-268 CNS) was 29.7 µM, the TGI (SF-268 CNS) was > 100 µM and the GI50 (SNB-19 CNS) was 28.5 µM. The TGI (SNB-19 CNS) was > 100 µM, the GI50 (CAKI-1 renal) was 10.9 µM and the TGI (CAKI-1 renal) was 69.2 µM. The GI50 (SNB-75 CNS) was 24 µM, the TGI (SNB-75 CNS) was > 100 µM and the GI50 (HCT-116 colon) was 8.92 µM. It also gave a GI50 (RPMI-8226 leukemia) of 11.2 µM and a TGI (RPMI-8226 leukemia) of 35.1 µM.
Work on `CN(C)CCNC(=O)c1cccc2c1nc(-c1ccc(F)cc1)c1ccccc12` yielded a TGI (LOX IMVI melanoma) of 5.36 µM, a TGI (SF-539 CNS) of 13.8 µM and a TGI (HT29 colon) of 15.1 µM. For the same compound, the TGI (SF-268 CNS) was 21.8 µM, the TGI (SNB-19 CNS) was 20.2 µM and the TGI (CAKI-1 renal) was 16.8 µM. For the same compound, the TGI (SNB-75 CNS) was 22.8 µM, the TGI (HCT-116 colon) was 13.4 µM and the TGI (HL-60(TB) leukemia) was 10.9 µM.
`CSc1ccc(C2=C(c3ccccc3)C(=O)OC2)cc1` gave a GI50 (LOX IMVI melanoma) of 0.385 µM, a TGI (LOX IMVI melanoma) of 38.7 µM and a GI50 (SF-539 CNS) of 1.49 µM. For the same compound, the TGI (SF-539 CNS) was 12.3 µM, the GI50 (HT29 colon) was 0.239 µM and the TGI (HT29 colon) was > 100 µM. For the same compound, the GI50 (SF-268 CNS) was 3.02 µM, the TGI (SF-268 CNS) was > 64.7 µM and the GI50 (SNB-19 CNS) was 0.804 µM. The TGI (SNB-19 CNS) was > 100 µM, the GI50 (CAKI-1 renal) was 0.409 µM and the TGI (CAKI-1 renal) was 10.1 µM. The GI50 (SNB-75 CNS) was 5.67 µM, the TGI (SNB-75 CNS) was > 100 µM and the GI50 (HCT-116 colon) was 0.637 µM. It also gave a TGI (HCT-116 colon) of 61.7 µM, a GI50 (HL-60(TB) leukemia) of 0.35 µM and a TGI (HL-60(TB) leukemia) of 2.07 µM.

— PubChem BioAssay (NCI)
